Here are results for 3 compounds from patent US9226937B2 (priority 2011, dated 2016).

Each structure is given as a SMILES string.

Experiment [1] deals with rhabdomyosarcoma cells. The conditions noted are these: low dosage; cited from earlier work.
In experiment [2] the test system is injected tumors. The conditions noted are these: mice with injected tumors; cited from earlier work.
Experiment [3] has as its system fibrosarcoma cells. The conditions noted are these: cited from earlier work.
Experiment [4] addresses T1, SIRT1 (Homo sapiens, UniProt Q96EB6).
T1 construct: purchased Biomol Research Laboratories, Inc. AK-555
T1 sequence (Q96EB6 1-747): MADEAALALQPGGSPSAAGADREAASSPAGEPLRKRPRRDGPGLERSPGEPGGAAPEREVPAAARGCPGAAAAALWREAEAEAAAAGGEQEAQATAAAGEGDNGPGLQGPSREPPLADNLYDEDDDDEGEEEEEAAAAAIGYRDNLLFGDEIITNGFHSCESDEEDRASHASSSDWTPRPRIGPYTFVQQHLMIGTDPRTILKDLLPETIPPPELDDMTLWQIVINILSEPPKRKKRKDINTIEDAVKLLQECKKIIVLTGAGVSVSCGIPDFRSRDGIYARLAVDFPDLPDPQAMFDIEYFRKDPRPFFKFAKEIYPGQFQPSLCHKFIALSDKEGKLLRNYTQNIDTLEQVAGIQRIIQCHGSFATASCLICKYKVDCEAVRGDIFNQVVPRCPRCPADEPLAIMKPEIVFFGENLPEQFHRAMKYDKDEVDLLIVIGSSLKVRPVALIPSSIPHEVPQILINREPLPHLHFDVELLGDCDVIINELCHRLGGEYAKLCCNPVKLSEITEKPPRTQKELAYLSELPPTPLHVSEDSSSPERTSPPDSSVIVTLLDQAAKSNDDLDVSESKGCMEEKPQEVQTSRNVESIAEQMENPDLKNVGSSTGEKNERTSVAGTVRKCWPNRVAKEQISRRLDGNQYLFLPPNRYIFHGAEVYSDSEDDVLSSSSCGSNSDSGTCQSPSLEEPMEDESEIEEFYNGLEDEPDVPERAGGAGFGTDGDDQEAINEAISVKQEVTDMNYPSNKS
The experiment in a line: SIRT1 Fluorescent Activity Assay/Drug Discovery Kit AK-555. The format is biochemical. The conditions noted are these: stored under ambient conditions. The text has this:
Small molecules in the form of resveratrol were obtained via ethanol extraction from Vitis vinifera and Polygonum cuspidatum. […] The extract was kept in a nitrogen environment and added to a mixture including approximately 25% by weight quercetin; 33% by weight lecithin; and 9% phytic acid (in the form of rice bran extract). […] The resulting slurry was placed into a capsule-filling machine. Individual dosages were encapsulated in gelatin capsules tinted with titanium oxide (Licaps® capsules available from Capsugel; Greenwood, S.C.; www.capsugel.com). The dosages were encapsulated in a substantially oxygen-free environment using a capsule-filling machine continually flushed with nitrogen (the Capsugel CFS 1000 Capsule Filling and Sealing Machine, available from Capsugel; Greenwood, S.C.; www.capsugel.com). […] These capsule samples were stored under ambient conditions for approximately eight months. The samples were tested for biological activity by determining whether each sample could activate sirtuin enzymes and, in particular, whether the samples stimulated SIRT1 catalytic activity. The samples were tested four months and eight months after encapsulation. Tests were performed using a SIRT1 Fluorescent Activity Assay/Drug Discovery Kit AK-555 (available from Biomol® Research Laboratories, Inc.; Plymouth Meeting, Pa.; www.biomol.com).

Experiment [5] has as its system cardiac stem cells. The conditions noted are these: rats, cited from earlier work.

On to `O=P(O)(O)O[C@H]1[C@H](OP(=O)(O)O)[C@@H](OP(=O)(O)O)[C@H](OP(=O)(O)O)[C@@H](OP(=O)(O)O)[C@H]1OP(=O)(O)O` [IP6, (2,3,4,5,6-pentaphosphonooxycyclohexyl)dihydrogen phosphate], for which the “suppression of growth of rhabdomyosarcoma cells” value in experiment [1] is 50%. Besides, the “tumor size versus non-treated mice” value in experiment [2] was 50 times smaller. Also, the “survival of mice with injected fibrosarcoma cells” value in experiment [3] is listed as “prolong their survival”. In addition, the “growth of injected fibrosarcoma cells” value in experiment [3] (mice) is reported as “reduce the growth”.

On to `O=c1c(O)c(-c2ccc(O)c(O)c2)oc2cc(O)cc(O)c12` [quercetin], for which the “biological activity of encapsulated quercetin (ability to stimulate SIRT1 activity compared to when no quercetin is present)” value in experiment [4] is reported as “maintained biological activity”.

`Oc1ccc(/C=C/c2cc(O)cc(O)c2)cc1` [resveratrol, 3,4′,5-trihydroxy-trans-stilbene]: in experiment [5] (low dose (2.5 mg per kilogram) for two weeks prior to injection of cardiac stem cells), the “cardiac functional parameters (left ventricular ejection fraction, fractional shortening)” value was “significantly improved”. Besides, in experiment [5] (low dose for two weeks prior to injection of cardiac stem cells), the “stem cell survival and proliferation” value is “enhanced stem cell survival and proliferation”.
